Measured values: patent US7776819B2, “Targeted drug delivery of pain and addiction therapies using opioid receptor-mediated internalization” (The Board of Trustees of the University of Illinois, priority 2005, dated 2010)
Where a SMILES comes first, the peptide text is derived from it.

Molecular target: T1, human mu opioid receptors (hMOR) (Homo sapiens, UniProt P35372)
T1 construct: expressed in transfected cells; host or cells: CHO cells, stably transfected (G418 selection); membrane preparation
T1 sequence (P35372 whole entry): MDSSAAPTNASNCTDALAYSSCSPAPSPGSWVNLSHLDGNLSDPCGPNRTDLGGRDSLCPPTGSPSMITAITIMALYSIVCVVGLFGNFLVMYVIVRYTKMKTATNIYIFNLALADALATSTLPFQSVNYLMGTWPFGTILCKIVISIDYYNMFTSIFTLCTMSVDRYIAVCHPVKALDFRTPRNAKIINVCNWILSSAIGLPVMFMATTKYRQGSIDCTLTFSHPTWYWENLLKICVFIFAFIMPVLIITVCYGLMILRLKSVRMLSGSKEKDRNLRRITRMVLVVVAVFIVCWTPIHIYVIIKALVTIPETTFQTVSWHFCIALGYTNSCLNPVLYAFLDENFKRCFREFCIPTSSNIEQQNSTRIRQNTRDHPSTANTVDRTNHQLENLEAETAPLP
Assay: [3H]DAMGO displacement receptor binding assay, CHO-hMOR membranes
Experimental: Receptor membranes were prepared from CHO cells transfected with opioid mu receptors. Binding was performed at 30° C. in 50 mM pH 7.4 tris HCl buffer for 1 h for CHO-MOR (100 μg protein/reaction, 1 nM 3H-DAMGO). Reactions were terminated by vacuum filtration through GF/B filters pretreated with 0.2% polyethylenimine. These were then washed twice with ice-cold PBS. Filter-bound radioactivity was determined by liquid scintillation counting. Nonspecific binding was determined in the presence of 20 μM DAMGO.
Briefly, membranes were prepared from CHO-hMOR cells by Polytron homogenization at setting 6 for 2 min on ice, followed by centrifugation at 20,000 g for 30 min at 4° C. Protein content was determined by the Coomassie protein assay method (Pierce Biotechnology, Rockford, Ill.) and bovine serum albumin as the standard. MOR receptor binding was conducted in triplicate with 1 nM [^3H]DAMGO in 50 mM Tris HCl buffer (pH 7.4) at 30° C. for 1 h (50 μg protein/reaction). Nonspecific binding was determined in the presence of 20 μM unlabelled DAMGO. Reactions were terminated by rapid vacuum filtration through GF/B filters presoaked with 0.2% polyethylenimine. Filter-bound radioactivity was determined by liquid scintillation counting (Beckman Coulter Inc., Fullerton, Calif.). Binding data representing the mean ±SD were analyzed using Prism program (GraphPad Software, San Diego, Calif.).

SMILES: C[C@@H](NC(=O)[C@@H](N)Cc1ccc(O)cc1)C(=O)N[C@@H](Cc1ccccc1)C(=O)NCC(=O)N[C@@H](Cc1ccc(O)cc1)C(=O)N1CCC[C@H]1C(=O)N[C@@H](CO)C(=O)N[C@@H](CS)C(=O)O [c-p-dermorphin] (HELM PEPTIDE1{Y.[dA].F.G.Y.P.S.C}$$$$V2.0)
- IC50: 25.3 nM
